Experimental data from PubChem BioAssay (NCI).
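Protocol summary: plate cells (96-well), add compound at 5 concentrations, incubate 48 h, interpolate endpoints linearly. GI50: concentration for 50% inhibition of growth. TGI denotes the concentration required for complete inhibition of growth.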

Key:
Assay in all cases: NCI anticancer screen, dose series, 48 h
M14 melanoma = system: M14 melanoma
TK-10 renal = system: TK-10 renal
OVCAR-5 ovarian = system: OVCAR-5 ovarian
SK-MEL-28 melanoma = system: SK-MEL-28 melanoma
SNB-75 CNS = system: SNB-75 CNS
SW-620 colon = system: SW-620 colon
K-562 leukemia = system: K-562 leukemia
UACC-257 melanoma = system: UACC-257 melanoma
NCI-H522 lung = system: NCI-H522 lung
SK-MEL-5 melanoma = system: SK-MEL-5 melanoma
RPMI-8226 leukemia = system: RPMI-8226 leukemia
KM12 colon = system: KM12 colon
SK-MEL-2 melanoma = system: SK-MEL-2 melanoma
A498 renal = system: A498 renal
MDA-MB-468 breast = system: MDA-MB-468 breast
NCI-H460 lung = system: NCI-H460 lung
SN12C renal = system: SN12C renal
OVCAR-8 ovarian = system: OVCAR-8 ovarian
BT-549 breast = system: BT-549 breast
PC-3 prostate = system: PC-3 prostate
SNB-19 CNS = system: SNB-19 CNS
U251 CNS = system: U251 CNS
HCT-15 colon = system: HCT-15 colon
HCT-116 colon = system: HCT-116 colon
CAKI-1 renal = system: CAKI-1 renal
SF-295 CNS = system: SF-295 CNS
LOX IMVI melanoma = system: LOX IMVI melanoma
SF-268 CNS = system: SF-268 CNS
MDA-MB-435 = system: MDA-MB-435
NCI-H226 lung = system: NCI-H226 lung
SR leukemia = system: SR leukemia
MOLT-4 leukemia = system: MOLT-4 leukemia
A549 NSCLC = system: A549 NSCLC
MCF7 breast = system: MCF7 breast
T-47D breast = system: T-47D breast
NCI/ADR-RES ovarian = system: NCI/ADR-RES ovarian
IGROV1 ovarian = system: IGROV1 ovarian
MDA-MB-231 breast = system: MDA-MB-231 breast
SF-539 CNS = system: SF-539 CNS
HS 578T breast = system: HS 578T breast
MALME-3M melanoma = system: MALME-3M melanoma
HOP-92 NSCLC = system: HOP-92 NSCLC
OVCAR-3 ovarian = system: OVCAR-3 ovarian
OVCAR-4 ovarian = system: OVCAR-4 ovarian
786-0 renal = system: 786-0 renal
HOP-62 NSCLC = system: HOP-62 NSCLC
SK-OV-3 ovarian = system: SK-OV-3 ovarian
COLO 205 colon = system: COLO 205 colon
HT29 colon = system: HT29 colon
DU-145 prostate = system: DU-145 prostate
HCC-2998 colon = system: HCC-2998 colon
UO-31 renal = system: UO-31 renal
UACC-62 melanoma = system: UACC-62 melanoma
CCRF-CEM leukemia = system: CCRF-CEM leukemia
RXF 393 renal = system: RXF 393 renal
ACHN renal = system: ACHN renal

`COc1cc(OC)c(S(=O)(=O)N(CCCl)CCCl)cc1C(=O)/C=C/c1cc(OC)c(OC)c(OC)c1` gave a GI50 (M14 melanoma) of 2.09 µM, a TGI (M14 melanoma) of 5.45 µM and a GI50 (TK-10 renal) of 6.09 µM. For the same compound, the TGI (TK-10 renal) was 75 µM, the GI50 (OVCAR-5 ovarian) was 2.51 µM and the TGI (OVCAR-5 ovarian) was 6.8 µM. For the same compound, the GI50 (SK-MEL-28 melanoma) was 1.82 µM, the TGI (SK-MEL-28 melanoma) was 3.54 µM and the GI50 (SNB-75 CNS) was 2.56 µM. It also gave a TGI (SNB-75 CNS) of 8.53 µM, a GI50 (SW-620 colon) of 2.69 µM and a TGI (SW-620 colon) of 25.1 µM. For the same compound, the GI50 (K-562 leukemia) was 1.3 µM, the TGI (K-562 leukemia) was over 100 µM and the GI50 (UACC-257 melanoma) was 1.66 µM. The TGI (UACC-257 melanoma) was 3.89 µM, the GI50 (NCI-H522 lung) was 1.66 µM and the TGI (NCI-H522 lung) was 3.78 µM. For the same compound, the GI50 (SK-MEL-5 melanoma) was 1.84 µM, the TGI (SK-MEL-5 melanoma) was 3.64 µM and the GI50 (RPMI-8226 leukemia) was 2.52 µM. The TGI (RPMI-8226 leukemia) was over 100 µM, the GI50 (KM12 colon) was 1.93 µM and the TGI (KM12 colon) was 4.26 µM. It also gave a GI50 (SK-MEL-2 melanoma) of 2.06 µM, a TGI (SK-MEL-2 melanoma) of 4.65 µM and a GI50 (A498 renal) of 2.79 µM. The TGI (A498 renal) was 7.23 µM, the GI50 (MDA-MB-468 breast) was 1.52 µM and the TGI (MDA-MB-468 breast) was 3.66 µM. The GI50 (NCI-H460 lung) was 1.95 µM, the TGI (NCI-H460 lung) was 5.08 µM and the GI50 (SN12C renal) was 2.26 µM. It also gave a TGI (SN12C renal) of 13 µM, a GI50 (OVCAR-8 ovarian) of 4.06 µM and a TGI (OVCAR-8 ovarian) of over 100 µM. The GI50 (BT-549 breast) was 1.37 µM, the TGI (BT-549 breast) was 2.92 µM and the GI50 (PC-3 prostate) was 3.85 µM. For the same compound, the TGI (PC-3 prostate) was over 100 µM, the GI50 (SNB-19 CNS) was 2.37 µM and the TGI (SNB-19 CNS) was 5.71 µM. The GI50 (U251 CNS) was 1.78 µM, the TGI (U251 CNS) was 3.68 µM and the GI50 (HCT-15 colon) was 1.12 µM. It also gave a TGI (HCT-15 colon) of 3.98 µM, a GI50 (HCT-116 colon) of 1.23 µM and a TGI (HCT-116 colon) of 2.82 µM. For the same compound, the GI50 (CAKI-1 renal) was 2.72 µM, the TGI (CAKI-1 renal) was over 100 µM and the GI50 (SF-295 CNS) was 2.86 µM. It also gave a TGI (SF-295 CNS) of 35.4 µM, a GI50 (LOX IMVI melanoma) of 1.44 µM and a TGI (LOX IMVI melanoma) of 2.89 µM. For the same compound, the GI50 (SF-268 CNS) was 2.62 µM, the TGI (SF-268 CNS) was 7.7 µM and the GI50 (MDA-MB-435) was 2.53 µM. For the same compound, the TGI (MDA-MB-435) was 7.51 µM, the GI50 (NCI-H226 lung) was 2.61 µM and the TGI (NCI-H226 lung) was 8.95 µM. The GI50 (SR leukemia) was 0.993 µM, the TGI (SR leukemia) was over 100 µM and the GI50 (MOLT-4 leukemia) was 2.04 µM. For the same compound, the TGI (MOLT-4 leukemia) was over 100 µM, the GI50 (A549 NSCLC) was 3.11 µM and the TGI (A549 NSCLC) was over 100 µM. It also gave a GI50 (MCF7 breast) of 1.01 µM, a TGI (MCF7 breast) of 4.36 µM and a GI50 (T-47D breast) of 3.53 µM. The TGI (T-47D breast) was over 100 µM, the GI50 (NCI/ADR-RES ovarian) was 2.58 µM and the TGI (NCI/ADR-RES ovarian) was over 100 µM. The GI50 (IGROV1 ovarian) was 3.09 µM, the TGI (IGROV1 ovarian) was 9.05 µM and the GI50 (MDA-MB-231 breast) was 3.95 µM. For the same compound, the TGI (MDA-MB-231 breast) was over 100 µM, the GI50 (SF-539 CNS) was 1.73 µM and the TGI (SF-539 CNS) was 3.61 µM. For the same compound, the GI50 (HS 578T breast) was 8.55 µM, the TGI (HS 578T breast) was over 100 µM and the GI50 (MALME-3M melanoma) was 2.48 µM. It also gave a TGI (MALME-3M melanoma) of 7.18 µM, a GI50 (HOP-92 NSCLC) of over 100 µM and a TGI (HOP-92 NSCLC) of over 100 µM. For the same compound, the GI50 (OVCAR-3 ovarian) was 2.12 µM, the TGI (OVCAR-3 ovarian) was 6.62 µM and the GI50 (OVCAR-4 ovarian) was 2.78 µM. It also gave a TGI (OVCAR-4 ovarian) of over 100 µM, a GI50 (786-0 renal) of 1.95 µM and a TGI (786-0 renal) of 5.66 µM. It also gave a GI50 (HOP-62 NSCLC) of 3.77 µM, a TGI (HOP-62 NSCLC) of 22.8 µM and a GI50 (SK-OV-3 ovarian) of 3.47 µM. The TGI (SK-OV-3 ovarian) was 13 µM, the GI50 (COLO 205 colon) was 2.37 µM and the TGI (COLO 205 colon) was 4.46 µM. It also gave a GI50 (HT29 colon) of 2.34 µM, a TGI (HT29 colon) of 5.92 µM and a GI50 (DU-145 prostate) of 2.71 µM. For the same compound, the TGI (DU-145 prostate) was 14.8 µM, the GI50 (HCC-2998 colon) was 1.97 µM and the TGI (HCC-2998 colon) was 3.54 µM. It also gave a GI50 (UO-31 renal) of 1.54 µM, a TGI (UO-31 renal) of 2.92 µM and a GI50 (UACC-62 melanoma) of 2.1 µM. The TGI (UACC-62 melanoma) was 4.94 µM, the GI50 (CCRF-CEM leukemia) was 1.69 µM and the TGI (CCRF-CEM leukemia) was over 100 µM. The GI50 (RXF 393 renal) was 1.24 µM, the TGI (RXF 393 renal) was 2.83 µM and the GI50 (ACHN renal) was 2.08 µM. For the same compound, the TGI (ACHN renal) was 6.16 µM.
